Experimental data taken from patent US8247552B2, “Analogs of dehydrophenylahistins and their therapeutic use” (Nereus Pharmaceuticals, Inc., priority 2002, dated 2012).
Like-named read-outs stand apart in the source and are kept apart here.

Legend:
HT-29 human colon cells = assay: Tumor cytotoxicity / cell growth inhibition assay, resazurin fluorescence, 48 h; type: cell-based; conditions: for EC50: Homo sapiens
[1] = system: MES-SA/Dx5 (Taxol resistant) human uterine sarcoma; assay: Cytotoxicity / growth inhibition in multidrug resistant uterine sarcoma cells; type: cell-based; conditions: versus MES-SA
Description: 1) Human Uterine Sarcoma Tumor Cell Line Pair: MES-SA (Taxol Sensitive) and MES-SA/Dx5 (Taxol Resistant).
HL-60 and HL-60/MX2 cells were both seeded at 5×10^4 cells/well in 90 μl complete media into 96 well plates on the day of compound addition. […] Ten μl volumes of the 10× serial dilutions were added to the test wells in triplicate and the plates returned to the incubator for 48 hours.
Resazurin dye in medium without cells was used to determine the background, which was subtracted from the data for all experimental wells.
The multidrug resistant MES-SA/Dx5 tumor cell line was derived from the human uterine sarcoma MES-SA tumor cell line and expresses elevated P-Glycoprotein (P-gp), an ATP dependent efflux pump. […] Paclitaxel, a known substrate of the P-gp pump was included as a control.

[2] = system: MCF7 cells (GFP-alpha-tubulin); assay: Microtubule dynamic instability in living MCF7 cells (time-lapse microscopy); type: cell-based, human
[3] = Table 28, 25% of the maximal mitotic block
[4] = Table 29, 50% of the maximal mitotic block

## COc1cc(/C=c2\[nH]c(=O)/c(=C/c3nc[nH]c3C(C)(C)C)[nH]c2=O)cc(OC)c1 [KPU-16, tBu-ΔPLH-3,5-diOMe]
HT-29 human colon cells
  cytotoxic activity against HT-29 cells: showed high activity

## COc1cc(OC)c(/C=c2\[nH]c(=O)/c(=C/c3nc[nH]c3C(C)(C)C)[nH]c2=O)c(OC)c1 [KPU-45, tBu-ΔPLH-2,4,6-TriOMe]
HT-29 human colon cells
  cytotoxic activity against HT-29 cells: also showed activity

## CC(=O)O[C@H]1C(=O)[C@@]2(C)[C@H]([C@H](OC(=O)c3ccccc3)[C@]3(O)C[C@H](OC(=O)[C@H](O)[C@@H](NC(=O)c4ccccc4)c4ccccc4)C(C)=C1C3(C)C)[C@]1(OC(C)=O)CO[C@@H]1C[C@@H]2O [Paclitaxel]
[1]; Example 11
  times less active against resistant MES-SA/Dx5 cells: ~400 times

## Cc1ccsc1/C=c1\[nH]c(=O)/c(=C/c2nc[nH]c2C(C)(C)C)[nH]c1=O [KPU-29, tBu-ΔPLH-3-Me-2-thienyl]
HT-29 human colon cells
  cytotoxic activity against HT-29 cells: exhibited activity

## CC(C)(C)c1[nH]cnc1/C=c1\[nH]c(=O)/c(=C/c2cccc(OC(F)(F)F)c2)[nH]c1=O [KPU-80, TBu- ΔPLH—m-OCF3]
HT-29 human colon cells
  activity compared with tBu-dehydroPLH: higher activity than tBu-dehydroPLH

## COc1cc([C@@H]2c3cc4c(cc3[C@@H](O[C@@H]3O[C@@H]5CO[C@@H](C)O[C@H]5[C@H](O)[C@H]3O)[C@H]3COC(=O)[C@H]23)OCO4)cc(OC)c1O [etoposide, Etoposide]
[1]
  reduced susceptibility of MES-SA/DX5 cell line: 60 fold

## COc1ccc(F)c(/C=c2\[nH]c(=O)/c(=C/c3nc[nH]c3C(C)(C)C)[nH]c2=O)c1 [KPU-81, TBu-ΔPLH-2-F-5-OMe]
HT-29 human colon cells
  activity compared with tBu-dehydroPLH: higher activity than tBu-dehydroPLH

## COc1cccc2c1C(=O)c1c(O)c3c(c(O)c1C2=O)C[C@@](O)(C(=O)CO)C[C@@H]3O[C@H]1C[C@H](N)[C@H](O)[C@H](C)O1 [doxorubicin, Doxorubicin]
[1]
  reduced susceptibility of MES-SA/DX5 cell line: 34 fold

## CC(C)(C)c1ocnc1/C=c1\[nH]c(=O)/c(=C/c2ccccc2F)[nH]c1=O [compound 2475, tBu-Oxadelta-PLH-2-F]
HT-29 human colon cells; Table 3.2, HT-29 cells, 48 hours, read-out: EC50 (M) Mean
  EC50: 4.66e-08 M

## CC(C)(C)c1[nH]cnc1/C=c1\[nH]c(=O)/c(=C/c2ccccc2)[nH]c1=O [tBu-dehydrophenylahistin, 3-Z-Benzylidene-6-(5″-tert-butyl-1H-imidazol-4″-Z-ylmethylene)-piperazine-2,5-dione]
HT-29 human colon cells; Table 1 data
  cytotoxic activity in comparison with dehydrophenylahistin: ~4 times

## CC(C)(C)c1[nH]cnc1/C=c1\[nH]c(=O)/c(=C/c2ccccc2)[nH]c1=O [compound 2421]
HT-29 human colon cells; HT-29, read-out: EC50 (M) Mean, Table 3.1, cell line not given, assay as above
  EC50: 2.22e-08 M
HT-29 human colon cells; Table 3.1, cell line not given
  % cytotox Mean: 88%

## COc1ccc(/C=C\c2cc(OC)c(OC)c(OC)c2)cc1O [CA4, Combretastatin A4]
[2]; [3]
  % time spent Attenuation: 39.50%
  % time spent Growth: 35.31%
  % time spent Shortening: 25.19%
  Freq. of (min-1) Catastrophe: 1.52 min⁻¹
  Freq. of (min-1) Rescue: 1.90 min⁻¹
  Mean duration (min) Attenuation: 0.45 min
  Mean duration (min) Growth: 0.27 min
  Mean duration (min) Shortening: 0.21 min
  Mean rates (μm/min) Shortening: 40.21 μm/min
[2]; Table 28, concentration effecting 25% of the maximal mitotic block in MCF7 cells
  Mean rates (μm/min) Growth: 10.59 μm/min
[2]; Table 28, dynamicity, 25% of the maximal mitotic block
  Dyn. (μm/min): 13.87 μm/min
[2]; [4]
  % time spent Attenuation: 36.23%
  % time spent Growth: 43.64%
  % time spent Shortening: 20.13%
  Dynamicity (μm/min): 10.91 μm/min
  Freq. of (min-1) Catastrophe: 1.09 min⁻¹
  Freq. of (min-1) Rescue: 2.79 min⁻¹
  Mean duration (min) Attenuation: 0.55 min
  Mean duration (min) Growth: 0.33 min
  Mean duration (min) Shortening: 0.22 min
  Mean rates (μm/min) Shortening: 29.88 μm/min
[2]; Table 29, concentration effecting 50% of the maximal mitotic block in MCF7 cells
  Mean rates (μm/min) Growth: 11.21 μm/min
[2]; concentrations effecting 25% or 50% of maximal mitotic block
  effect on MT dynamic instability: did not have a measurable effect on MT dynamic instability
